Source: patent publication US6642216B2, “Isoprenoid pathway inhibitors for stimulating bone growth” (ZymoGenetics Corporation, priority 1996, dated 2003)

Tested on: BMP-2 promoter
Assay: ABA assay: BMP-2 promoter-luciferase reporter in 2T3-BMP-2-LUC osteoblast cells
Assay type: cell-based, mouse
Protocol: These transformed cells are then evaluated for the production of the reporter gene product; compounds that activate the BMP promoter will drive production of the reporter protein, which can be readily assayed.
The cells were cultured using α-MEM, 10% FCS with 1% penicillin/streptomycin and 1% glutamine (“plating medium”), and were split 1:5 once per week. For the assay, the cells were resuspended in a plating medium containing 4% FCS, plated in microtiter plates at a concentration of 5×10^3 cells (in 50 μl)/well, and incubated for 24 hours at 37° C. in 5% CO2. To initiate the assay, 50 μl of the test compound or the control in DMSO was added at 2× concentration to each well, so that the final volume was 100 μl. The final serum concentration was 2% FCS, and the final DMSO concentration was 1%.
The treated cells were incubated for 24 hours at 37° C. and 5% CO2. The medium was then removed, and the cells were rinsed three times with PBS. After removal of excess PBS, 25 μl of 1× cell culture lysing reagent (Promega #E153A) was added to each well and incubated for at least ten minutes. Optionally, the plates/samples could be frozen at this point. To each well was added 50 μl of luciferase substrate (Promega #E152A; 10 ml Promega luciferase assay buffer per 7 mg Promega luciferase assay substrate). Luminescence was measured on an automated 96-well luminometer, and was expressed as either picograms of luciferase activity per well or as picograms of luciferase activity per microgram of protein.
Alternatively, the reactivity of a compound to be tested can be compared directly to a negative control containing no compound.

[1] = Experiment 3, 8.88178E μg/ml (0.002193 μM lovastatin, 0.002087 μM fluvastatin)

| Structure (SMILES) | % 59-0008 Response (Experiment 1, 0.195312 μg/ml) | Fold increase over negative control (Experiment 1, 0.195312 μg/ml) | % 59-0008 Response (Experiment 1, 0.390625 μg/ml) | Fold increase over negative control (Experiment 1, 0.390625 μg/ml) | % 59-0008 Response (Experiment 1, 0.78125 μg/ml) | Fold increase over negative control (Experiment 1, 0.78125 μg/ml) | % 59-0008 Response (Experiment 1, 1.5625 μg/ml) | Fold increase over negative control (Experiment 1, 1.5625 μg/ml) | % 59-0008 Response (Experiment 1, 3.125 μg/ml) | Fold increase over negative control (Experiment 1, 3.125 μg/ml) | % 59-0008 Response (Experiment 1, 6.25 μg/ml) | Fold increase over negative control (Experiment 1, 6.25 μg/ml) | % 59-0008 Response (Experiment 1, 12.5 μg/ml) | Fold increase over negative control (Experiment 1, 12.5 μg/ml) | % 59-0008 Response (Experiment 1, 25 μg/ml) | Fold increase over negative control (Experiment 1, 25 μg/ml) | % 59-0008 Response (Experiment 1, 50 μg/ml) | Fold increase over negative control (Experiment 1, 50 μg/ml) | % 59-0008 Response (Experiment 1, 200 μg/ml) | Fold increase over negative control (Experiment 1, 200 μg/ml) | also measured |
| --- | --- | --- | --- | --- | --- | --- | --- | --- | --- | --- | --- | --- | --- | --- | --- | --- | --- | --- | --- | --- | --- |
| CC[C@H](C)C(=O)O[C@H]1C[C@H](O)C=C2C=C[C@H](C)[C@H](CC[C@@H](O)C[C@@H](O)CC(=O)O)[C@H]21 [Pravastatin, pravastatin] | −4.390% | 0.807 fold | −1.290% | 0.943 fold | −1.980% | 0.913 fold | −1.120% | 0.951 fold | 0.380% | 1.017 fold | 0.920% | 1.040 fold | 1.110% | 1.049 fold | 3.520% | 1.155 fold | 5.000% | 1.220 fold | 11.670% | 1.513 fold | % 59-0008 Response (Experiment 1, 100 μg/ml): 7.620%; Fold increase over negative control (Experiment 1, 100 μg/ml): 1.335 fold |
| CC(C)n1c(/C=C/C(O)CC(O)CC(=O)O)c(-c2ccc(F)cc2)c2ccccc21 (centres unmarked) [Fluvastatin, fluvastatin] | 36.820% | 2.630 fold | 28.080% | 2.243 fold | 75.160% | 4.328 fold | 117.980% | 6.223 fold | 173.280% | 8.672 fold | 165.630% | 8.333 fold | 164.450% | 8.281 fold | 137.500% | 7.088 fold | −22.660% | −0.003 fold | −22.700% | −0.005 fold | % 59-0008 Response (Experiment 3, 0.002842 μg/ml): −3.26%; Fold increase over negative control (Experiment 3, 0.002842 μg/ml): 0.83 fold; % 59-0008 Response (Experiment 3, 0.009094 μg/ml): −3.84%; Fold increase over negative control (Experiment 3, 0.009094 μg/ml): 0.8 fold; % 59-0008 Response (Experiment 3, 0.029103 μg/ml): −5.18%; Fold increase over negative control (Experiment 3, 0.029103 μg/ml): 0.73 fold; % 59-0008 Response (Experiment 3, 0.093132 μg/ml): −2.11%; Fold increase over negative control (Experiment 3, 0.093132 μg/ml): 0.89 fold; % 59-0008 Response (Experiment 3, 0.298023 μg/ml): −3.26%; Fold increase over negative control (Experiment 3, 0.298023 μg/ml): 0.83 fold; % 59-0008 Response (Experiment 3, 0.953674 μg/ml): 2.3%; Fold increase over negative control (Experiment 3, 0.953674 μg/ml): 1.12 fold; % 59-0008 Response (Experiment 3, 3.051757 μg/ml): 22.66%; Fold increase over negative control (Experiment 3, 3.051757 μg/ml): 2.18 fold; % 59-0008 Response (Experiment 3, 9.765625 μg/ml): 103.7%; Fold increase over negative control (Experiment 3, 9.765625 μg/ml): 6.4 fold; % 59-0008 Response (Experiment 3, 31.25 μg/ml): 122.53%; Fold increase over negative control (Experiment 3, 31.25 μg/ml): 7.38 fold; % 59-0008 Response [1]: −0.19%; Fold increase over negative control [1]: 0.99 fold |
| c1ccc(N=NC2=NNc3ccccc3S2)cc1 [59-0008, 3-phenylazo-1H-4,1,2-benzothiadiazine] | – | – | – | – | – | – | – | – | – | – | – | – | – | – | – | – | – | – | – | – | concentration at which reactivity is maximal: 3 to 10 µM |
| CC(O)(CCO)CC(=O)O (centres unmarked) [mevalonate] | – | – | – | – | – | – | – | – | – | – | – | – | – | – | – | – | – | – | – | – | effect of mevalonic acid on primary screen activity of 59-0008: no effect; effect of added mevalonate on the activity of mevastatin in the ABA assay (mevalonate 25-800 μM, mevastatin 100, 25, or 6.25 μM): inhibits the activity of mevastatin |
